Here are results for three compounds from ChEMBL document CHEMBL5696442, “Discovery of type II inhibitors of TGFβ-activated kinase 1 (TAK1) and mitogen-activated protein kinase kinase kinase kinase 2 (MAP4K2)” (J Med Chem, 2015).

The term inhibition denotes the change of the read-out against control, counted positive when it falls. For orientation: residual activity means the signal under treatment as a percentage of the control signal. A low value points to little activity left.

Structures are written as SMILES. Calls of active or inactive are those of the source. The calls are words filed in the database; no cut-off is given here.

The target in test [1] is Phosphatidylinositol 4,5-bisphosphate 3-kinase catalytic subunit alpha isoform (Homo sapiens) (UniProt P42336). Put plainly: Inhibition of PIK3CA ATP labeling site in human A-375 cells at 5 uM by KiNativ Profiling analysis relative to control. It counts as cell-based.
Test [2] deals with Tyrosine-protein kinase receptor TYRO3 (Homo sapiens) (UniProt Q06418). Put plainly: Inhibition of TYRO3 (unknown origin) at 1 uM by Ambit Kinomescan binding assay relative to control.
Test [3] addresses Serine/threonine-protein kinase Nek5 (Homo sapiens) (UniProt Q6P3R8). Put plainly: Inhibition of NEK5 (unknown origin) at 1 uM by Ambit Kinomescan binding assay relative to control; values are per cent of control.
Test [4] addresses Serine/threonine-protein kinase MRCK beta (Homo sapiens) (UniProt Q9Y5S2). Put plainly: Inhibition of MRCKb in human A-375 cells at 5 uM by KiNativ Profiling analysis relative to control. It counts as cell-based.
Test [5] has as its target Serine/threonine-protein kinase 38-like (Homo sapiens) (UniProt Q9Y2H1). Put plainly: Inhibition of NDR2 Lys1 labeling site harbouring KDTGHIYAMKILR in human A-375 cells at 0.05 uM by KiNativ Profiling analysis relative to control. It counts as cell-based.
Test [6] deals with SRSF protein kinase 1 (Homo sapiens) (UniProt Q96SB4). Put plainly: Inhibition of SRPK1 (unknown origin) at 1 uM by Ambit Kinomescan binding assay relative to control.
The target of test [7] is Platelet-derived growth factor receptor alpha (Homo sapiens) (UniProt P16234). Put plainly: Inhibition of PDGFRA (unknown origin) at 1 uM by Ambit Kinomescan binding assay relative to control; values are per cent of control.
Test [8] has as its target T1, Dual specificity mitogen-activated protein kinase kinase 6 (Homo sapiens) (UniProt P52564).
T1 sequence (whole entry): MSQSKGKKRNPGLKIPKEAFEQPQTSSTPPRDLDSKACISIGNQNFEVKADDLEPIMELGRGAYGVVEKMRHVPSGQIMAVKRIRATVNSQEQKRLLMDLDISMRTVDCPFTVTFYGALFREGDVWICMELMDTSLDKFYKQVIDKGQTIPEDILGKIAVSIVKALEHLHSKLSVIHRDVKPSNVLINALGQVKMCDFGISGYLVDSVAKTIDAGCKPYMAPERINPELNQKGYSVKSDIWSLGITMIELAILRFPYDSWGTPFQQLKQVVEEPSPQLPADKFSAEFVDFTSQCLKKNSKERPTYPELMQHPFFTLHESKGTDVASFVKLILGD
Put plainly: Inhibition of MAP2K6 Lys2 labeling site in human A-375 cells at 0.5 uM by KiNativ Profiling analysis relative to control. It counts as cell-based.

In test [9] the target is Cytoplasmic tyrosine-protein kinase BMX (Homo sapiens) (UniProt P51813). Put plainly: Inhibition of BMX (unknown origin) at 1 uM by Ambit Kinomescan binding assay relative to control; values are per cent of control.
Test [10] addresses Serine/threonine-protein kinase MARK2 (Homo sapiens) (UniProt Q7KZI7). Put plainly: Inhibition of MARK2 Lys2 labeling site harbouring DLKAENLLLDADMNIK in human A-375 cells at 0.5 uM by KiNativ Profiling analysis relative to control. It counts as cell-based.
For test [11], the target named is T2, Kinase suppressor of Ras 1 (Homo sapiens) (UniProt Q8IVT5).
T2 sequence (whole entry): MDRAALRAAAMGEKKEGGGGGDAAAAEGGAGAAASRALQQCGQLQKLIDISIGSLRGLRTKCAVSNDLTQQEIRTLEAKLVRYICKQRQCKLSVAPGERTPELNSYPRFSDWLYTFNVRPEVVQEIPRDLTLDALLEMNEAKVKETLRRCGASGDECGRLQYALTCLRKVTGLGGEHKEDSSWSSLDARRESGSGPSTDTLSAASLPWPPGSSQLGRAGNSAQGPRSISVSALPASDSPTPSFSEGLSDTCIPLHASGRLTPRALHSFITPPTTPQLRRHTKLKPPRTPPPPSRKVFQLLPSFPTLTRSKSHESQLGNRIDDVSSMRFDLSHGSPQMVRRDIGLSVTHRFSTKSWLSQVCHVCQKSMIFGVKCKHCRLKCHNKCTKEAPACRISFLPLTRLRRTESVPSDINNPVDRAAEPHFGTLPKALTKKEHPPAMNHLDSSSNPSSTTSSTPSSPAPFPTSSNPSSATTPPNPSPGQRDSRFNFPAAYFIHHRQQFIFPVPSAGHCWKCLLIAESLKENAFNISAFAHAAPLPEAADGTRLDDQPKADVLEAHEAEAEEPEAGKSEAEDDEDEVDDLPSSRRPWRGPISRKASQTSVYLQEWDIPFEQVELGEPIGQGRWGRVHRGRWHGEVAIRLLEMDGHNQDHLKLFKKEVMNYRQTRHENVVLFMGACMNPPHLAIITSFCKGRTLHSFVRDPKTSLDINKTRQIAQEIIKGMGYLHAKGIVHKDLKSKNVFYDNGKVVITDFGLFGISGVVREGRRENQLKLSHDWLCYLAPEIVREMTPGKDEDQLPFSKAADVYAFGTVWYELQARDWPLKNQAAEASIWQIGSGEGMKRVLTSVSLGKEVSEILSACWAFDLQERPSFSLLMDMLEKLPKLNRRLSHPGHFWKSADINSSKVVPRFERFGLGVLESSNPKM
Put plainly: Inhibition of KSR1 ACT labeling site harbouring SKNVFYDNGKVVITDFGLFGISGVVR in human A-375 cells at 0.05 uM by KiNativ Profiling analysis relative to control. It counts as cell-based.

The target in test [12] is DNA-PK/Ku70/Ku85 (Homo sapiens) (UniProt P78527+P12956+P13010). Put plainly: Inhibition of DNAPK ATP labeling site harbouring GHDEREHPFLVKGGEDLRQDQR in human A-375 cells at 0.5 uM by KiNativ Profiling analysis relative to control. It counts as cell-based.
Test [13] deals with Serine/threonine-protein kinase A-Raf (Homo sapiens) (UniProt P10398). Put plainly: Inhibition of ARAF Lys2 labeling site in human A-375 cells at 0.05 uM by KiNativ Profiling analysis relative to control. It counts as cell-based.
Test [14] concerns the target Cyclin-dependent kinase 1 (Homo sapiens) (UniProt P06493). Put plainly: Inhibition of CDC2 K2 labeling site harbouring DLKPQNLLIDDKGTIK in human Huh-7 cells at 1 uM by KiNativ Profiling analysis relative to control. It counts as cell-based.
Test [15] concerns the target RAC-gamma serine/threonine-protein kinase (Homo sapiens) (UniProt Q9Y243). Put plainly: Inhibition of AKT3 (unknown origin) at 10 uM by Ambit Kinomescan binding assay.
For test [16], the target named is Serine/threonine-protein kinase 25 (Homo sapiens) (UniProt O00506). Put plainly: Inhibition of YSK1 Lys2 labeling site in human Huh-7 cell lysate at 1 uM by KiNativ Profiling analysis relative to control. It counts as subcellular.
Test [17] has as its target Phosphatidylinositol 3-kinase catalytic subunit type 3 (Homo sapiens) (UniProt Q8NEB9). Put plainly: Inhibition of PIK3C3 ATP labeling site in human Huh-7 cell lysate at 1 uM by KiNativ Profiling analysis relative to control. It counts as subcellular.

RAC-gamma serine/threonine-protein kinase (Homo sapiens), sequence (Q9Y243 whole entry): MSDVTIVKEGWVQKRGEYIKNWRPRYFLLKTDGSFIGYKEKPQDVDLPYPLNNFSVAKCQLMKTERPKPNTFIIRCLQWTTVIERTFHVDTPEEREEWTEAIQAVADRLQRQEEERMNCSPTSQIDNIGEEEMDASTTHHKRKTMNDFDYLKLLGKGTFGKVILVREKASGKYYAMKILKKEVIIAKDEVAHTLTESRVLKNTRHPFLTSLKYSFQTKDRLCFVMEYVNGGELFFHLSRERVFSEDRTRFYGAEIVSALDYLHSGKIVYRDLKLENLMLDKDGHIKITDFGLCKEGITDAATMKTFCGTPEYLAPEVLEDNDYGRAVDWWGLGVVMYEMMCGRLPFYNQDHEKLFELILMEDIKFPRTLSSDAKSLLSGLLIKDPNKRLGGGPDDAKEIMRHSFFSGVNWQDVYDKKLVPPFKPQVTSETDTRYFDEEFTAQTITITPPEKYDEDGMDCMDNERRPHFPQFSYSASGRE
Phosphatidylinositol 4,5-bisphosphate 3-kinase catalytic subunit alpha isoform (Homo sapiens), sequence (P42336 whole entry, canonical isoform): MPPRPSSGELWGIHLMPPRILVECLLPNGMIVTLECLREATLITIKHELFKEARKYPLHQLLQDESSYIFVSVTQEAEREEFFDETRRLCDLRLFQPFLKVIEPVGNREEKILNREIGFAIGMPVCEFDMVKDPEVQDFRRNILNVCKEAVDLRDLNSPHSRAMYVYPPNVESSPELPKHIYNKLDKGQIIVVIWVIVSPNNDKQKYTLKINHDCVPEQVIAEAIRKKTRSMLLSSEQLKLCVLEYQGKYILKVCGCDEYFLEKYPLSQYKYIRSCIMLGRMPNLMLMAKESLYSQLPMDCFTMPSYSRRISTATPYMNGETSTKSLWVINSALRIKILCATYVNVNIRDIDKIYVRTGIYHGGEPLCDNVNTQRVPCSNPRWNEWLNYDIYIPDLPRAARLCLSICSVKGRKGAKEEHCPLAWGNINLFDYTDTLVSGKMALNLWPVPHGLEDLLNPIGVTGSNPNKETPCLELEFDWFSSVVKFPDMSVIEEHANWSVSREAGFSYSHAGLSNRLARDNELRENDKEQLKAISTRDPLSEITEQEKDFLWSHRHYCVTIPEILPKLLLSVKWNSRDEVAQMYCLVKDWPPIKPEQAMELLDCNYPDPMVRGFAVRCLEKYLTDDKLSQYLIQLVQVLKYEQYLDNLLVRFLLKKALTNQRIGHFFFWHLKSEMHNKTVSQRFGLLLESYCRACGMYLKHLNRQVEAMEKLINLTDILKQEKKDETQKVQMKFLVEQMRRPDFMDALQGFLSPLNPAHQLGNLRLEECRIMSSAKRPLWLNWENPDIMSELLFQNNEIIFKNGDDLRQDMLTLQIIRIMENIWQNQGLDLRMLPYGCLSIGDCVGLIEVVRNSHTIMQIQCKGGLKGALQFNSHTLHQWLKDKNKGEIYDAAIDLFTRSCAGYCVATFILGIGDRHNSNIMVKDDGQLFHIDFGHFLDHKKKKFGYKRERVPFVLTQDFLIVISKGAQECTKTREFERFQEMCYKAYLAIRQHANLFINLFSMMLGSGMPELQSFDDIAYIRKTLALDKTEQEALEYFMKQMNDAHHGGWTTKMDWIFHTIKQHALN
Serine/threonine-protein kinase 38-like (Homo sapiens), sequence (Q9Y2H1 2-464 limits assumed): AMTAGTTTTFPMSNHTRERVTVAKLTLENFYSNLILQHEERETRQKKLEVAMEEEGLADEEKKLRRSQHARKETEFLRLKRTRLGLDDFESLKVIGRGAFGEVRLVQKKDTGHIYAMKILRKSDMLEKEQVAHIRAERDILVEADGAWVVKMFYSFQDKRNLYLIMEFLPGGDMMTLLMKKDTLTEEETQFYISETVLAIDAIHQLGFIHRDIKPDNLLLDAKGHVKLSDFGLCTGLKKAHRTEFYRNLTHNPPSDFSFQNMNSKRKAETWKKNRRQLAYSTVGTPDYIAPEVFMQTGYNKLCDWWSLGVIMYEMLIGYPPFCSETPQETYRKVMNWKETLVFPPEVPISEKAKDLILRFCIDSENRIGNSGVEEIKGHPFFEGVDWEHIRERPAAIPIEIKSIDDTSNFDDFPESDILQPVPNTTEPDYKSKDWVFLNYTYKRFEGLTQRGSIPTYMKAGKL
Serine/threonine-protein kinase MRCK beta (Homo sapiens), sequence (Q9Y5S2 whole entry): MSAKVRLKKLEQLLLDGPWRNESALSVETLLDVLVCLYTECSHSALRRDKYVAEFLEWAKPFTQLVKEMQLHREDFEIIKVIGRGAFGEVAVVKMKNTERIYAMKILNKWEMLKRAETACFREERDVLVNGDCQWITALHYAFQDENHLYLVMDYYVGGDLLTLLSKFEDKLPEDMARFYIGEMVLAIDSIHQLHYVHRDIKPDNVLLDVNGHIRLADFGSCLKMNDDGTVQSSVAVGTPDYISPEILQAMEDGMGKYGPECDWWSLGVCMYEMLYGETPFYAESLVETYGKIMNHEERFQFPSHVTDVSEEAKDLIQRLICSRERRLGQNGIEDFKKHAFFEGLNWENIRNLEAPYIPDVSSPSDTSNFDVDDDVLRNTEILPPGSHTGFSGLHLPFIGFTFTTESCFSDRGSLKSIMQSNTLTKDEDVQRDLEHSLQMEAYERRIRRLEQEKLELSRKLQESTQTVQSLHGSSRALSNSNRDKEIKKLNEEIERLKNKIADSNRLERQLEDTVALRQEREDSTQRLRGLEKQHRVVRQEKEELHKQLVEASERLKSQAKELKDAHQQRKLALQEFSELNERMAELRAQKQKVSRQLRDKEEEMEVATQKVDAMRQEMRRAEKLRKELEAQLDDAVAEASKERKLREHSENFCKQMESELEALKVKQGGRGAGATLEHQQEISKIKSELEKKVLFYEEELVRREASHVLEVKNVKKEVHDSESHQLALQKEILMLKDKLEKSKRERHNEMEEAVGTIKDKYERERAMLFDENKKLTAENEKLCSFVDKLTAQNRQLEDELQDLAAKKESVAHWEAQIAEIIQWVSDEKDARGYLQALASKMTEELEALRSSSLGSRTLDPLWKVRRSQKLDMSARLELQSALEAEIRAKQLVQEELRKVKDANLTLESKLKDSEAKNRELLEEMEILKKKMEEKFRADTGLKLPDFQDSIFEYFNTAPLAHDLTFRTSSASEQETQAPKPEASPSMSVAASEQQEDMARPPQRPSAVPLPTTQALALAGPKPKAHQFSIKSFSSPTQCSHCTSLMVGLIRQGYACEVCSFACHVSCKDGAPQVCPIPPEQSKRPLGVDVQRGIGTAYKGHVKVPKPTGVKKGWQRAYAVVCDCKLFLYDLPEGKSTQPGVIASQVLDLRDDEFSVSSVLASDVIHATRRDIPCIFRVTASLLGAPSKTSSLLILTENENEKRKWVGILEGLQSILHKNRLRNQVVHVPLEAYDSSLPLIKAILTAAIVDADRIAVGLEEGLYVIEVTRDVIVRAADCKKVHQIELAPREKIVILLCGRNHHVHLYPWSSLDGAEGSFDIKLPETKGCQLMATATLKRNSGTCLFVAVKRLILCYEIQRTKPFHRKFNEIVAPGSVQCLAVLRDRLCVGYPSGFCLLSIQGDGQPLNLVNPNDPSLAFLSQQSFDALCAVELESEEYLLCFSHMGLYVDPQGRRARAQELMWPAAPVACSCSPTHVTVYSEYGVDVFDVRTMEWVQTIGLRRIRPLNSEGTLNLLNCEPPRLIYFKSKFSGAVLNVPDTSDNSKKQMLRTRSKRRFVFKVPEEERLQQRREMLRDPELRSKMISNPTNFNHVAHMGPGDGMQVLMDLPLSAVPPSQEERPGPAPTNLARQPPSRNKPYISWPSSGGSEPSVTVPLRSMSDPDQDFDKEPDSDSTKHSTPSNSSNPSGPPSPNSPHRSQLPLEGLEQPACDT
Phosphatidylinositol 3-kinase catalytic subunit type 3 (Homo sapiens), sequence (Q8NEB9 whole entry): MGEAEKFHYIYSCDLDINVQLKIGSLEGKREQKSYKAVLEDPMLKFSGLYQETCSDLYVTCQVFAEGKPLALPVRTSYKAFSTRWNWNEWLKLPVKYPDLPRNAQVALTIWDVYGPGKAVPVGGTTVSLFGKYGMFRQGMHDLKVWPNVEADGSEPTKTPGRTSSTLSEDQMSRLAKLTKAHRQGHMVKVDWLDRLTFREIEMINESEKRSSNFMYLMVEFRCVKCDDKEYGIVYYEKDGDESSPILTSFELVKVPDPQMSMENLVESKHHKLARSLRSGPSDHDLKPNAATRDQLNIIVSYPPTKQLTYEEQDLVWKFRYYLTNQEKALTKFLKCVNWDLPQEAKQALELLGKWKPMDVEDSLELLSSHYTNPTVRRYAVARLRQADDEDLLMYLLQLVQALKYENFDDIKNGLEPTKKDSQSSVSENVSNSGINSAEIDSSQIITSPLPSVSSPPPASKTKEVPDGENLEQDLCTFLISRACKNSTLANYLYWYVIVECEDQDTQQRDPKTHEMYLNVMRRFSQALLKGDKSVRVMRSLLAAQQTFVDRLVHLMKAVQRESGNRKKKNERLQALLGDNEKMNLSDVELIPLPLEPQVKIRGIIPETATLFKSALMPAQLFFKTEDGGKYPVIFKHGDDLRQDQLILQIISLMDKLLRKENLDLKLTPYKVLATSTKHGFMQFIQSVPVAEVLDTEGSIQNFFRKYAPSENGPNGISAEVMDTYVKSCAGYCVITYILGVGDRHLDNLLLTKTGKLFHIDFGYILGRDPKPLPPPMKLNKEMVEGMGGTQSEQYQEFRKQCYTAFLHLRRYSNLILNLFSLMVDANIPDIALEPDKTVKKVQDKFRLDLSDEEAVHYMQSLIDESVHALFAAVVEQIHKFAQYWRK
Serine/threonine-protein kinase 25 (Homo sapiens), sequence (O00506 whole entry, looked up): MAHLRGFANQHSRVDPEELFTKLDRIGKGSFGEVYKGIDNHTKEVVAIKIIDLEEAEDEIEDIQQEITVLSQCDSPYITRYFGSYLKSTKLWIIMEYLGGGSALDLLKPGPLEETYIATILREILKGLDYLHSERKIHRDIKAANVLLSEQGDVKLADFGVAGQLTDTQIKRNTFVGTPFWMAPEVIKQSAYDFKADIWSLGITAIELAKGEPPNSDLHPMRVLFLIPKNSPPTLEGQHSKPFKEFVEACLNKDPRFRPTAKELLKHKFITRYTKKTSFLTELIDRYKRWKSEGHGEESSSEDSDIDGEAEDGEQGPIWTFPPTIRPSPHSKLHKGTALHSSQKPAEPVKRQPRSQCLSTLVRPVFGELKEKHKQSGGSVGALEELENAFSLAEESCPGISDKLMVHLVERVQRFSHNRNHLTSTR

For the compound `CCN1CCN(Cc2ccc(NC(=O)c3ccc(C)c(/C=C/c4cnc5[nH]ccc5c4OC)c3)cc2C(F)(F)F)CC1`, the inhibition in [1] is 56.9%; in [2], 76%; in test [4], 8.4%; in [5] it was 6%; in [6], 28%; in [8], -7%. For the same compound, the inhibition in test [10] came to 9.1%. The values for the residual activity in [3], in [7] and in test [9] were 47%, 2.6% and 1.6%, respectively.
`CCN1CCN(Cc2ccc(NC(=O)c3ccc(C)c(Oc4ccnc5[nH]ccc45)c3)cc2C(F)(F)F)CC1`: the inhibition was -2.6% in [11], -6% in test [12], 39.3% in [13] and 7.9% in test [14]. Besides, the inhibition entry in test [15] was “inactive”.
On to `CNc1cc(Oc2cc(C(=O)Nc3cc(N4CCN(C)CC4)cc(C(F)(F)F)c3)ccc2C)ncn1`, for which the inhibition was -0.3% in test [16] and -4.2% in test [17].
